Assay results reported in patent publication US20240174622A1, “COMPOUND AND RADIOACTIVE LABELING COMPOUND” (NIHON MEDI-PHYSICS CO., LTD., priority 2021, published 2024).

Experiments:
[1] = test system: LNCaP tumor-transplanted mouse; assay: Internal radioactivity distribution using LNCaP tumor-transplanted mouse; assay type: in vivo
Procedure: (§1) The animal test was performed in compliance with the guidelines of Kyoto University Animal Experiment Committee. Male CB17/IcrJcl-Prkdc^scid mice were purchased from CLEA Japan, Inc. The animals were kept under 12 h/12 h, day/night cycle conditions and fed ad libitum with food and water. LNCaP cells (1.0×10^7 cells/mouse) or PC-3 cells (1.0×10^7 cells/mouse) were suspended in a mixture of PBS and Matrigel manufactured by Corning Life Sciences (1:1, 150 μL) and the suspension was subcutaneously transplanted to the right shoulder of mice under isoflurane anesthesia. Thereafter, the mice were kept for 40 to 60 days.
LNCaP or PC-3 tumor-implanted mice were administered saline solutions (185 kBq, 100 μL) of [^111In]In-PSMA-DA1 or [^111In]In-PSMA-DB from the tail vein (n=3 each). Mice were euthanized 1, 4, 24, 48, 96, and 192 hours after administration. Thereafter, blood and each organ were recovered, and the mass and radioactivity of the organs were measured.
The percentage (% ID) of the radioactivity amount to the administered radioactivity amount (injected dose) is shown as the value (% ID/g) divided by the blood mass or the organ mass (g).
LNCaP tumor-implanted mice prepared by the same method as in Example 1-1 were administered a saline solution (241 kBq/100 μL) of [^111In]In-PtDA from the tail vein (n=3). Mice were euthanized 1, 24, and 48 hours after administration. Thereafter, blood and each organ were recovered, and the mass and radioactivity of the organs were measured.
LNCaP tumor-implanted mice prepared by the same method as in Example 1-1 were administered a saline solution (259 kBq/100 μL each) of each of the radiolabeled compounds in Examples 3-1 to 3-3 or Comparative Examples 2-1 to 2-2 from the tail vein (n=2 to 3). Mice were euthanized 1, 4, 24, 48, 96, and 192 hours after administration. Thereafter, blood and each organ were recovered, and the mass and radioactivity of the organs were measured.
as §1, with “LNCaP cells (4.3×10^6 cells/mouse) or” for “LNCaP cells (1.0×10^7 cells/mouse) or”, “PC-3 cells (3.3×10^6 cells/mouse) were” for “PC-3 cells (1.0×10^7 cells/mouse) were”, “shoulder of CB17/IcrJcl-Prkdc^scid mice under” for “shoulder of mice under”
Mice were euthanized 1, 4, 24, 48, 96, and 192 hours after administration. Thereafter, blood and each organ were recovered, and the mass and radioactivity of the organs were measured.
The results are shown in Table 12 (Mean value±standard deviation, n=3).

[2] = molecular target: human serum albumin (HSA) (Homo sapiens, UniProt P02768); assay: Evaluation of binding to albumin (HSA solution, PBS control); settings: left to stand in HSA solution (45 mg/mL)
human serum albumin (HSA), sequence (P02768 25-609): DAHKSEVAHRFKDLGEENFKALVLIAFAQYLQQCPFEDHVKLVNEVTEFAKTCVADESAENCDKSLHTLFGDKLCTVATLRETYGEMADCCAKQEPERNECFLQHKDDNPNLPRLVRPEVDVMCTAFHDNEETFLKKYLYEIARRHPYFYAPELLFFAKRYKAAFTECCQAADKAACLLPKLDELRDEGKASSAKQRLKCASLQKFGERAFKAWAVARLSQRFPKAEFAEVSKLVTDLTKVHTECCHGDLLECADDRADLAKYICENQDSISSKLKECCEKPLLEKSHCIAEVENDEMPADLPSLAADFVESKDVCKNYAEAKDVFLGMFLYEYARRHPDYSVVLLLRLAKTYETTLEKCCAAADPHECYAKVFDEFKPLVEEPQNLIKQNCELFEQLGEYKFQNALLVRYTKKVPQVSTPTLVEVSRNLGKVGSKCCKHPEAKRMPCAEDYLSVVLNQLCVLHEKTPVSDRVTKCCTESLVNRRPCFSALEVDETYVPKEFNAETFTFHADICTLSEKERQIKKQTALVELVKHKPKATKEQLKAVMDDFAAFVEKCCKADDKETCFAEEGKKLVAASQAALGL
Procedure: Thereafter, the reaction liquids were added to a spin column (Sephadex G-100; manufactured by Cytiva), and centrifuged at 1500×g at 4° C. for 2 minutes. After separation, the radioactivity for each of the column and the eluate was measured with a gamma counter.
When a compound to be evaluated binds to albumin to form a composite, the compound passes through the column because of the increased molecular size.
As in Examples described above, PBS and human albumin were used to evaluate binding to albumin.
Thereafter, the reaction liquid was added to a spin column (Sephadex G-50; manufactured by Cytiva), and centrifuged at 1500×g at 4° C. for 2 minutes. After separation, the radioactivity of the column and the eluate was measured with a gamma counter.

O=C([O-])CN(Cc1cccc(C(=O)[O-])n1)C[C@H](Cc1ccc(NC(=O)[C@H](CCCCNC(=O)CCC(=O)NCCCC[C@H](NC(=O)N[C@@H](CCC(=O)O)C(=O)O)C(=O)O)NC(=O)COCCOCCOCC(=O)N[C@@H](CCCCNC(=O)CCCc2ccc(I)cc2)C(=O)O)cc1)N(CC(=O)[O-])Cc1cccc(C(=O)[O-])n1.[111In+3] [[^111In]In-Octapa-3]
Blood ([1]; 1 h after administration): 27.2 ± 2.92 % ID/g | Brain ([1]; 1 h after administration): 0.40 ± 0.05 % ID/g | Heart ([1]; 1 h after administration): 6.53 ± 0.66 % ID/g | Intestine ([1]; 1 h after administration): 2.60 ± 0.48 % ID/g | Kidney ([1]; 1 h after administration): 57.1 ± 17.4 % ID/g | LNCaP Tumor ([1]; 1 h after administration): 7.79 ± 1.11 % ID/g | Liver ([1]; 1 h after administration): 4.32 ± 0.40 % ID/g | Lung ([1]; 1 h after administration): 16.7 ± 1.41 % ID/g | Muscle ([1]; 1 h after administration): 1.51 ± 0.23 % ID/g | Pancreas ([1]; 1 h after administration): 2.59 ± 0.26 % ID/g | Spleen ([1]; 1 h after administration): 8.56 ± 0.95 % ID/g | Stomach (% ID) ([1]; 1 h after administration): 0.49 ± 0.04 % ID | Blood ([1]; 4 h after administration): 19.3 ± 3.84 % ID/g | Brain ([1]; 4 h after administration): 0.31 ± 0.07 % ID/g | Heart ([1]; 4 h after administration): 5.98 ± 0.93 % ID/g | Intestine ([1]; 4 h after administration): 3.23 ± 0.18 % ID/g | Kidney ([1]; 4 h after administration): 100 ± 6.33 % ID/g | LNCaP Tumor ([1]; 4 h after administration): 11.3 ± 2.39 % ID/g | Liver ([1]; 4 h after administration): 3.36 ± 0.39 % ID/g | Lung ([1]; 4 h after administration): 14.1 ± 2.06 % ID/g | Muscle ([1]; 4 h after administration): 1.26 ± 0.18 % ID/g | Pancreas ([1]; 4 h after administration): 2.17 ± 0.15 % ID/g | Spleen ([1]; 4 h after administration): 7.42 ± 0.88 % ID/g | Stomach (% ID) ([1]; 4 h after administration): 0.78 ± 0.28 % ID | Blood ([1]; 24 h after administration): 7.20 ± 0.50 % ID/g | Brain ([1]; 24 h after administration): 0.16 ± 0.01 % ID/g | Heart ([1]; 24 h after administration): 2.50 ± 0.17 % ID/g | Intestine ([1]; 24 h after administration): 1.23 ± 0.28 % ID/g | Kidney ([1]; 24 h after administration): 26.4 ± 2.50 % ID/g | LNCaP Tumor ([1]; 24 h after administration): 8.04 ± 0.38 % ID/g | Liver ([1]; 24 h after administration): 1.73 ± 0.09 % ID/g | Lung ([1]; 24 h after administration): 5.85 ± 0.39 % ID/g | Muscle ([1]; 24 h after administration): 0.61 ± 0.04 % ID/g | Pancreas ([1]; 24 h after administration): 1.24 ± 0.16 % ID/g | Spleen ([1]; 24 h after administration): 2.87 ± 0.40 % ID/g | Stomach (% ID) ([1]; 24 h after administration): 0.25 ± 0.08 % ID | Blood ([1]; 48 h after administration): 3.88 ± 1.13 % ID/g | Brain ([1]; 48 h after administration): 0.12 ± 0.02 % ID/g | Heart ([1]; 48 h after administration): 1.37 ± 0.18 % ID/g | Intestine ([1]; 48 h after administration): 0.62 ± 0.14 % ID/g | Kidney ([1]; 48 h after administration): 17.3 ± 5.57 % ID/g | LNCaP Tumor ([1]; 48 h after administration): 7.79 ± 2.72 % ID/g | Liver ([1]; 48 h after administration): 1.42 ± 0.08 % ID/g | Lung ([1]; 48 h after administration): 3.18 ± 0.68 % ID/g | Muscle ([1]; 48 h after administration): 0.26 ± 0.05 % ID/g | Pancreas ([1]; 48 h after administration): 0.60 ± 0.13 % ID/g | Spleen ([1]; 48 h after administration): 1.76 ± 0.39 % ID/g | Stomach (% ID) ([1]; 48 h after administration): 0.13 ± 0.04 % ID | Blood ([1]; 96 h after administration): 0.63 ± 0.32 % ID/g | Brain ([1]; 96 h after administration): 0.07 ± 0.02 % ID/g | Heart ([1]; 96 h after administration): 0.43 ± 0.17 % ID/g | Intestine ([1]; 96 h after administration): 0.29 ± 0.09 % ID/g | Kidney ([1]; 96 h after administration): 4.33 ± 2.06 % ID/g | LNCaP Tumor ([1]; 96 h after administration): 4.17 ± 0.80 % ID/g | Liver ([1]; 96 h after administration): 0.70 ± 0.25 % ID/g | Lung ([1]; 96 h after administration): 0.78 ± 0.29 % ID/g | Muscle ([1]; 96 h after administration): 0.08 ± 0.03 % ID/g | Pancreas ([1]; 96 h after administration): 0.22 ± 0.06 % ID/g | Spleen ([1]; 96 h after administration): 0.88 ± 0.32 % ID/g | Stomach (% ID) ([1]; 96 h after administration): 0.06 ± 0.03 % ID | Blood ([1]; 192 h after administration): 0.03 ± 0.00 % ID/g | Brain ([1]; 192 h after administration): 0.02 ± 0.01 % ID/g | Heart ([1]; 192 h after administration): 0.12 ± 0.02 % ID/g | Intestine ([1]; 192 h after administration): 0.05 ± 0.01 % ID/g | Kidney ([1]; 192 h after administration): 0.27 ± 0.02 % ID/g | LNCaP Tumor ([1]; 192 h after administration): 1.31 ± 0.49 % ID/g | Liver ([1]; 192 h after administration): 0.35 ± 0.04 % ID/g | Lung ([1]; 192 h after administration): 0.12 ± 0.04 % ID/g | Muscle ([1]; 192 h after administration): 0.01 ± 0.02 % ID/g | Pancreas ([1]; 192 h after administration): 0.07 ± 0.01 % ID/g | Spleen ([1]; 192 h after administration): 0.31 ± 0.11 % ID/g | Stomach (% ID) ([1]; 192 h after administration): 0.01 ± 0.00 % ID | radioactivity in the eluate (in words) [2]: significantly higher
